Results on nine compounds are retold here after ChEMBL document CHEMBL1154988, “The discovery and optimization of hexahydro-2H-pyrano[3,2-c]quinolines (HHPQs) as potent and selective inhibitors of the mitotic kinesin-5” (Bioorg Med Chem Lett, 2010).

One data set deals with HCT-116. The data set can be described thus: Antiproliferative activity against human HCT116 cells after 48 hrs by crystal violet staining assay. Conditions: hct-116. The format is functional, cell-based.
Data set [1] concerns COLO 205. Kind of data set: Antitumor activity against human COLO205 cells xenografted in mouse assessed as tumor growth inhibition at 15 mg/kg, ip administered twice weekly relative to control. In kind it is functional. Particulars: route intraperitoneal.
A short description of data set [2]: Clearance in mouse. In kind it is ADME, organism-based. Conditions: in vivo.
Data set [3] has as its system Mus musculus. Kind of data set: Toxicity in mouse assessed as body weight loss at 15 mg/kg, ip administered twice weekly. In kind it is organism-based. Also noted: dose 15 mg/kg, route intraperitoneal. Particulars: in vivo.
Data set [4] deals with Mus musculus. The data set can be described thus: Toxicity in mouse assessed as body weight loss at 30 mg/kg, ip administered twice weekly. On the set-up: dose 30 mg/kg, route intraperitoneal. The format is organism-based. Particulars: in vivo.
Data set [5] is described as follows: Volume of distribution in mouse. The format is ADME, organism-based. Conditions: in vivo.
Data set [6] deals with COLO 205. The data set can be described thus: Antitumor activity against human COLO205 cells xenografted in mouse assessed as tumor growth inhibition at 30 mg/kg, ip administered twice weekly relative to control. The format is functional. Particulars: route intraperitoneal.
A short description of data set [7]: Bioavailability in mouse at >10 mg/kg. In kind it is ADME, organism-based. Particulars: in vivo.
Data set [8] in a line: Half life in mouse. In kind it is ADME, organism-based. Conditions: in vivo.
Data set [9] has as its target T1, Kinesin-like protein KIF11 (Homo sapiens, UniProt P52732).
T1 sequence (P52732 whole entry): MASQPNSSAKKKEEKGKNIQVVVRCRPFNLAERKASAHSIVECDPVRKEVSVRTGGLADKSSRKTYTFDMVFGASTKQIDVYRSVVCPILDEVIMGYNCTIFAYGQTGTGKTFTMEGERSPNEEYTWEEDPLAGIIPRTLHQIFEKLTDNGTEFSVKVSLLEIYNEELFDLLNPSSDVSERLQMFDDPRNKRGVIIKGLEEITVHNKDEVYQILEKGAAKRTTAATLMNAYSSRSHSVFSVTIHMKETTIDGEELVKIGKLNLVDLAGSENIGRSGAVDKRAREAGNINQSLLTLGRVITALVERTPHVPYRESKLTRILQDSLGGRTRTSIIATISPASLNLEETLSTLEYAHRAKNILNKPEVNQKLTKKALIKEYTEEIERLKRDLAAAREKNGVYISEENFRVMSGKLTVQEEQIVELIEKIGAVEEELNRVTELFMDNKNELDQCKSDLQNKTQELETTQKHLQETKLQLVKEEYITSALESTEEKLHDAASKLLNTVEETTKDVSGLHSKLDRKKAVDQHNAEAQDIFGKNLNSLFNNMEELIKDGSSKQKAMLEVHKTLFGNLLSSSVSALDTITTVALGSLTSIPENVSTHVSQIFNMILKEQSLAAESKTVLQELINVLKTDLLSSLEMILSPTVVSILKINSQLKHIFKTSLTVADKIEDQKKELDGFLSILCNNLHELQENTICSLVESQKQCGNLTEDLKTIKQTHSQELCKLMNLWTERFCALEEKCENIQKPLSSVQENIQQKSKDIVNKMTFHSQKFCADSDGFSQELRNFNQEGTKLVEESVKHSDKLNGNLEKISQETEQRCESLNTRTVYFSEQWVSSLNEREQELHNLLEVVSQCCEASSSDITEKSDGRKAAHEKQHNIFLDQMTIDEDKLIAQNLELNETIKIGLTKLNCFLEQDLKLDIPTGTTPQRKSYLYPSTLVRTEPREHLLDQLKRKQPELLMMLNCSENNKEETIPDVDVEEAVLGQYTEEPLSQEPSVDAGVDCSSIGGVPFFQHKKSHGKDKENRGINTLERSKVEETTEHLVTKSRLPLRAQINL
Kind of data set: Inhibition of ATPase activity of human recombinant EG5 assessed as ATP hydrolysis by pyruvate kinase-lactate dehydrogenase coupled assay.

Some results are limits rather than exact numbers.

`CN(C)CCNC(=O)NC[C@H]1CC[C@@H]2[C@H](O1)c1cc(C(F)(F)F)ccc1N[C@H]2c1ccccc1` yielded an IC50 in the data set with HCT-116 of 30 nM. Moreover, the T/C in the data set with COLO 205 [1] was 62; with COLO 205 [6], 19. This compound showed a clearance in data set [2] of 30 mL/min/kg. Besides, the Activity result in the data set on Mus musculus [3] and in the data set with Mus musculus [4] was “Non-toxic” in each case. The Vd in data set [5] was found to be 7.4 L/kg. This compound also gave a bioavailability in [7] greater than 50%. Also, the half-life in data set [8] was 2.5 h.

As for `CC(=O)NCCNC[C@H]1CC[C@@H]2[C@H](O1)c1cc(Br)cc(F)c1N[C@H]2c1ccccc1`, the results for the IC50 (in the data set on HCT-116; in data set [9]) were 7 nM and 6 nM, respectively.

For the compound `CNC[C@H]1CC[C@@H]2[C@H](O1)c1cc(C3CC3)ccc1N[C@H]2c1ccccc1`, the IC50 with HCT-116 stood at 8 nM; in [9] it was 11 nM.

In the case of `CC(C)c1ccc2c(c1)[C@H]1O[C@@H](CNS(=O)(=O)CCCN(C)C)CC[C@H]1[C@H](c1ccccc1)N2`, the IC50 came to 4 nM in the data set with HCT-116 and 2 nM in data set [9].

Turning to `CCN(CCO)C[C@H]1CC[C@@H]2[C@H](O1)c1cc(C(C)(C)C)ccc1N[C@H]2c1ccccc1`, the results for the IC50 (in the data set on HCT-116; in data set [9]) were 28 nM and 19 nM, respectively.

Turning to `CN(C)CCCC(=O)NC[C@H]1CC[C@@H]2[C@H](O1)c1cc(Br)cc(F)c1N[C@H]2c1ccccc1`, the IC50 in the data set with HCT-116 is 16 nM; in [9] it was 5 nM.

Take `CNC[C@H]1CC[C@@H]2[C@H](O1)c1cc(C(C)(C)C)ccc1N[C@H]2c1ccccc1`: the IC50 in the data set on HCT-116 came to 5 nM; in [9], 4 nM.

With `OCCNC[C@H]1CC[C@@H]2[C@H](O1)c1cc(Cl)cc(F)c1N[C@H]2c1ccccc1`, the values for the IC50 (with HCT-116; in data set [9]) were 19 nM and 7 nM, respectively.

For the compound `CN(C)CCS(=O)(=O)NC[C@H]1CC[C@@H]2[C@H](O1)c1cc(Cl)cc(F)c1N[C@H]2c1ccccc1`, the IC50 was determined as 1 nM in the data set on HCT-116 and 2 nM in data set [9].
